Measured values taken from patent publication US20110038885A1, “CHEMOKINE ANALOGS” (priority 2007, published 2011).
Bridge positions count the residues as written; N and C are the ends. Square brackets hold non-standard residues; d marks the D form. Peptide text beside a SMILES is read from it. Dap = NC[C@H](N)C(=O)O

How the values were obtained:
IL-8 = experiment: In vitro chemotaxis, inhibition v IL-8; format: cell-based, human; parameters: concentration or dose not given beside the values
Protocol: To determine whether an agent inhibits a chemokine-induced activity, such as macrophage recruitment, varying amounts of the agent are mixed with cells in the presence of a known chemoattractant. For example, a range of known concentrations of an agent, e.g., a chemokine peptide, is incubated with a defined number (e.g., 10^4-10^6) of human THP-1 monocyte cells in individual wells of the top compartment of a trans-well plate. Chemokine, at a concentration known to cause significant migration of THP-1 cells in the trans-well migration assay, is placed in the lower compartment of a trans-well plate. Cells are then incubated at 37° C. for a period sufficient to allow migration, e.g., 4 hours. After incubation, the cells are gently removed from the top of the filter with a pipette, 20 μl of 20 mM EDTA in simple PBS is added into each top well, and incubated for 20 minutes at 4° C. The filter is carefully flushed with media using a gentle flow, and removed. A standard curve consisting of a two-fold dilution series of THP-1 cells (in 29 μl) is placed to accurately quantify the number of cells that have migrated. Migrated cells are stained with 3 μl of MTT stock dye solution which is added directly into each well (5 mg/ml in RPMI-1640 without phenol red) (Sigma Chemical Co., St. Louis, Mo., USA) and incubated at 37° C. for 4 hours. The media is carefully aspirated from each well, and the converted dye is solubilized by 20 μl of DMSO. Absorbance of converted dye is measured at a wavelength of 595 nm using an ELISA plate reader. The number of migrated cells in each well is then determined by interpolation of the standard curve (see also Imai et al., J. Biol. Chem., 272:15036, 1997). Any method suitable for counting cells can be used, for example, counting with a hemocytometer, incubation of the cells with MTT (see above), or FACS analysis. A negative control assay is also performed, using TGFβ or another non-chemokine chemoattractant (e.g., IL1β or TNFα). To assess whether the agent is cytotoxic, the same concentrations of agent are incubated with THP-1 cells. Agents which 1) are not cytotoxic at levels which inhibit migration, 2) are ineffective at inhibiting the negative control-induced migration, and 3) reduce or inhibit chemokine-induced THP-1 migration, are agents which fall within the scope of the invention.

MCP-1 = experiment: In vitro chemotaxis (trans-well migration) v MCP-1; format: cell-based, human
Summary of the method: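 Human THP-1 monocytes (10^4-10^6) with agent at varying concentrations in upper trans-well chamber; IL-8 or MCP-1 in lower chamber at a migration-inducing concentration, 37° C for e.g. 4 hours. Migrated cells quantified by MTT (595 nm) against a THP-1 standard curve; cytotoxicity and non-chemokine chemoattractant controls run.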

| SMILES | EC50 (MCP-1) [nM] | v IL-8 inhibition (%) (IL-8) |
| --- | --- | --- |
| CC[C@H](C)[C@@H]1NC(=O)[C@@H](Cc2c[nH]c3ccccc23)NC(=O)[C@H](CCCCN)NC(=O)[C@H](CCC(N)=O)NC(=O)[C@H](CCCCN)NC(=O)[C@@H]2CCCN2C(=O)[C@H](CC(=O)O)NC(=O)[C@H](CC(C)C)NC(=O)[C@@H](NC(C)=O)CSSC[C@@H](C(N)=O)NC(=O)[C@H](CCC(N)=O)NC1=O [Example 26, Ac-c(Cys-Leu-Asp-Pro-Lys-Gln-Lys-D-Trp-Ile-Gln-Cys)-NH2] (Ac-CLDPKQK[dW]IQC-NH2; disulfide 1-11) | 20 | 94.9 |
| CC[C@H](C)[C@@H]1NC(=O)[C@H](Cc2c[nH]c3ccccc23)NC(=O)[C@H](CCCCN)NC(=O)[C@H](CCC(N)=O)NC(=O)[C@H](CCCCN)NC(=O)[C@@H]2CCCN2C(=O)[C@@H](CC(=O)O)NC(=O)[C@H](CC(C)C)NC(=O)[C@@H](NC(C)=O)CSSC[C@@H](C(N)=O)NC(=O)[C@H](CCC(N)=O)NC1=O [Example 31, Ac-c(Cys-Leu-D-Asp-Pro-Lys-Gln-Lys-Trp-Ile-Gln-Cys)-NH2] (Ac-CL[dD]PKQKWIQC-NH2; disulfide 1-11) | 50 | 95.8 |
| CC[C@H](C)[C@@H]1NC(=O)[C@H](Cc2c[nH]c3ccccc23)NC(=O)[C@H](CCCCN)NC(=O)[C@H](CCC(N)=O)NC(=O)[C@H](CCCCN)NC(=O)[C@@H]2CCCN2C(=O)[C@H](CC(=O)O)NC(=O)[C@H](CC(C)C)NC(=O)[C@H](N)CSSC[C@H](C(N)=O)NC(=O)[C@H](CCC(N)=O)NC1=O [Example 37, c(D-Cys-Leu-Asp-Pro-Lys-Gln-Lys-Trp-Ile-Gln-D-Cys)-NH2] (H-[dC]LDPKQKWIQ[dC]-NH2; disulfide 1-11) | > 1000 | −14.7 |
| CC[C@H](C)[C@@H]1NC(=O)[C@H](Cc2c[nH]c3ccccc23)NC(=O)[C@H](CCCCN)NC(=O)[C@H](CCC(N)=O)NC(=O)[C@H](CCCCN)NC(=O)[C@@H](NC(=O)[C@@H]2CCCN2C(=O)[C@H](CC(=O)O)NC(=O)[C@@H](N)CC(C)C)CSSC[C@@H](C(N)=O)NC(=O)[C@H](CCC(N)=O)NC1=O [Example 38, Leu-Asp-Pro-c(Cys-Lys-Gln-Lys-Trp-Ile-Gln-Cys)-NH2] (H-LDPCKQKWIQC-NH2; disulfide 4-11) | > 1000 | −12 |
| CC[C@H](C)[C@@H]1NC(=O)[C@H](Cc2c[nH]c3ccccc23)NC(=O)[C@H](CCCCN)NC(=O)[C@H](CCC(N)=O)NC(=O)[C@H](CCCCN)NC(=O)[C@@H](NC(=O)[C@@H]2CCCN2C(=O)[C@@H](N)CC(=O)O)CSSC[C@@H](C(N)=O)NC(=O)[C@H](CCC(N)=O)NC1=O [Example 40, Asp-Pro-c(Cys-Lys-Gln-Lys-Trp-Ile-Gln-Cys)-NH2] (H-DPCKQKWIQC-NH2; disulfide 3-10) | 7 | 113.5 |
| CC[C@H](C)[C@@H]1NC(=O)[C@H](Cc2c[nH]c3ccccc23)NC(=O)[C@H](CCCCN)NC(=O)[C@H](CCC(N)=O)NC(=O)[C@H](CCCCN)NC(=O)[C@@H]2CCCN2C(=O)[C@H](CC(=O)O)NC(=O)[C@@H](N)CSSC[C@@H](C(N)=O)NC(=O)[C@H](CCC(N)=O)NC1=O [Example 42, c(Cys-Asp-Pro-Lys-Gln-Lys-Trp-Ile-Gln-Cys)-NH2] (H-CDPKQKWIQC-NH2; disulfide 1-10) | 25 | 94.4 |

Continued, in another order:

| EC50 (MCP-1) [nM] | SMILES | v IL-8 inhibition (%) (IL-8) |
| --- | --- | --- |
| 30 | CC[C@H](C)[C@@H]1NC(=O)[C@H](Cc2c[nH]c3ccccc23)NC(=O)[C@H](CCCCN)NC(=O)[C@H](CCC(N)=O)NC(=O)[C@@H](CCCCN)NC(=O)[C@@H]2CCCN2C(=O)[C@H](CC(=O)O)NC(=O)[C@H](CC(C)C)NC(=O)[C@@H](NC(C)=O)CSSC[C@@H](C(N)=O)NC(=O)[C@H](CCC(N)=O)NC1=O [Example 29, Ac-c(Cys-Leu-Asp-Pro-D-Lys-Gln-Lys-Trp-Ile-Gln-Cys)-NH2] (Ac-CLDP[dK]QKWIQC-NH2; disulfide 1-11) | 92.0 |
| > 1000 | CC[C@H](C)[C@@H]1NC(=O)[C@H](Cc2c[nH]c3ccccc23)NC(=O)[C@H](CCCCN)NC(=O)[C@H](CCC(N)=O)NC(=O)[C@H](CCCCN)NC(=O)[C@@H]2CCCN2C(=O)[C@H](CC(=O)O)NC(=O)[C@@H](CC(C)C)NC(=O)[C@@H](NC(C)=O)CSSC[C@@H](C(N)=O)NC(=O)[C@H](CCC(N)=O)NC1=O [Example 32, Ac-c(Cys-D-Leu-Asp-Pro-Lys-Gln-Lys-Trp-Ile-Gln-Cys)-NH2] (Ac-C[dL]DPKQKWIQC-NH2; disulfide 1-11) | 8.7 |
| 250 | CC[C@H](C)[C@@H]1NC(=O)[C@H](Cc2c[nH]c3ccccc23)NC(=O)[C@H](CCCCN)NC(=O)[C@H](CCC(N)=O)NC(=O)[C@H](CCCCN)NC(=O)[C@@H]2CCCN2C(=O)[C@H](CC(=O)O)NC(=O)[C@H](CC(C)C)NC(=O)[C@@H](NC(=O)[C@H](CCCCN)NC(C)=O)CSSC[C@@H](C(N)=O)NC(=O)[C@H](CCC(N)=O)NC1=O [Example 34, Ac-Lys-c(Cys-Leu-Asp-Pro-Lys-Gln-Lys-Trp-Ile-Gln-Cys)-NH2] (Ac-KCLDPKQKWIQC-NH2; disulfide 2-12) | 75.7 |
| 50 | CC[C@H](C)[C@@H]1NC(=O)[C@H](Cc2c[nH]c3ccccc23)NC(=O)[C@H](CCCCN)NC(=O)[C@H](CCC(N)=O)NC(=O)[C@H](CCCCN)NC(=O)[C@@H]2CCCN2C(=O)[C@H](CC(=O)O)NC(=O)[C@H](CC(C)C)NC(=O)[C@H](N)CSSC[C@@H](C(=O)N[C@@H](CN)C(N)=O)NC(=O)[C@H](CCC(N)=O)NC1=O [Example 35, c(D-Cys-Leu-Asp-Pro-Lys-Gln-Lys-Trp-Ile-Gln-Cys)-Dap-NH2] (H-[dC]LDPKQKWIQC[Dap]-NH2; disulfide 1-11) | 91.9 |
| 600 | CC[C@H](C)[C@@H]1NC(=O)[C@H](Cc2c[nH]c3ccccc23)NC(=O)[C@H](CCCCN)NC(=O)[C@H](CCC(N)=O)NC(=O)[C@H](CCCCN)NC(=O)[C@@H]2CCCN2C(=O)[C@H](CC(=O)O)NC(=O)[C@H](CC(C)C)NC(=O)[C@@H](N)CSSC[C@H](C(N)=O)NC(=O)[C@H](CCC(N)=O)NC1=O [Example 36, c(Cys-Leu-Asp-Pro-Lys-Gln-Lys-Trp-Ile-Gln-D-Cys)-NH2] (H-CLDPKQKWIQ[dC]-NH2; disulfide 1-11) | 21.8 |
| > 1000 | CC[C@H](C)[C@@H]1NC(=O)[C@H](Cc2c[nH]c3ccccc23)NC(=O)[C@H](CCCCN)NC(=O)[C@H](CCC(N)=O)NC(=O)[C@H](CCCCN)NC(=O)[C@@H]2CCCN2C(=O)[C@H](CC(=O)O)NC(=O)[C@H](CC(C)C)NC(=O)[C@H](N)CSSC[C@@H](C(N)=O)NC(=O)[C@H](CCC(N)=O)NC1=O [Example 39, c(D-Cys-Leu-Asp-Pro-Lys-Gln-Lys-Trp-Ile-Gln-Cys)-NH2] (H-[dC]LDPKQKWIQC-NH2; disulfide 1-11) | 3.8 |
| 80 | CC[C@H](C)[C@@H]1NC(=O)[C@H](Cc2c[nH]c3ccccc23)NC(=O)[C@H](CCCCN)NC(=O)[C@H](CCC(N)=O)NC(=O)[C@@H](NC(=O)[C@H](CCCCN)NC(=O)[C@@H]2CCCN2C(=O)[C@@H](N)CC(=O)O)CSSC[C@@H](C(N)=O)NC(=O)[C@H](CCC(N)=O)NC1=O [Example 41, Asp-Pro-Lys-c(Cys-Gln-Lys-Trp-Ile-Gln-Cys)-NH2] (H-DPKCQKWIQC-NH2; disulfide 4-10) | 67.8 |
| 600 | CC[C@H](C)[C@@H]1NC(=O)[C@H](Cc2c[nH]c3ccccc23)NC(=O)[C@H](CCCCN)NC(=O)[C@H](CCC(N)=O)NC(=O)[C@H](CCCCN)NC(=O)[C@@H](NC(=O)[C@@H]2CCCN2)CSSC[C@@H](C(N)=O)NC(=O)[C@H](CCC(N)=O)NC1=O [Example 43, Pro-c(Cys-Lys-Gln-Lys-Trp-Ile-Gln-Cys)-NH2] (H-PCKQKWIQC-NH2; disulfide 2-9) | 21.9 |
| 1000 | CC[C@H](C)[C@@H]1NC(=O)[C@H](Cc2c[nH]c3ccccc23)NC(=O)[C@H](CCCCN)NC(=O)[C@H](CCC(N)=O)NC(=O)[C@@H](NC(=O)[C@H](CCCCN)NC(=O)[C@@H]2CCCN2)CSSC[C@@H](C(N)=O)NC(=O)[C@H](CCC(N)=O)NC1=O [Example 44, Pro-Lys-c(Cys-Gln-Lys-Trp-Ile-Gln-Cys)-NH2] (H-PKCQKWIQC-NH2; disulfide 3-9) | 12.9 |
